Results taken from PubChem BioAssay (NCI).
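In this assay, cells in 96-well plates receive the compound at five concentrations for 48 hours. Endpoints are linearly interpolated between the surrounding concentrations. GI50 = concentration required for 50% inhibition of growth. Definition used: TGI = concentration required for complete inhibition of growth.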

Key:
Experiment in all cases: DTP human tumour cell line panel, 48 h
786-0 renal = system: 786-0 renal
A498 renal = system: A498 renal
A549 NSCLC = system: A549 NSCLC
ACHN renal = system: ACHN renal
BT-549 breast = system: BT-549 breast
CAKI-1 renal = system: CAKI-1 renal
CCRF-CEM leukemia = system: CCRF-CEM leukemia
COLO 205 colon = system: COLO 205 colon
DU-145 prostate = system: DU-145 prostate
EKVX NSCLC = system: EKVX NSCLC
HCC-2998 colon = system: HCC-2998 colon
HCT-116 colon = system: HCT-116 colon
HCT-15 colon = system: HCT-15 colon
HL-60(TB) leukemia = system: HL-60(TB) leukemia
HOP-62 NSCLC = system: HOP-62 NSCLC
HOP-92 NSCLC = system: HOP-92 NSCLC
HS 578T breast = system: HS 578T breast
HT29 colon = system: HT29 colon
IGROV1 ovarian = system: IGROV1 ovarian
K-562 leukemia = system: K-562 leukemia
LOX IMVI melanoma = system: LOX IMVI melanoma
M14 melanoma = system: M14 melanoma
MALME-3M melanoma = system: MALME-3M melanoma
MCF7 breast = system: MCF7 breast
MDA-MB-231 breast = system: MDA-MB-231 breast
MDA-MB-435 = system: MDA-MB-435
MOLT-4 leukemia = system: MOLT-4 leukemia
NCI-H226 lung = system: NCI-H226 lung
NCI-H23 lung = system: NCI-H23 lung
NCI-H460 lung = system: NCI-H460 lung
NCI-H522 lung = system: NCI-H522 lung
NCI/ADR-RES ovarian = system: NCI/ADR-RES ovarian
OVCAR-3 ovarian = system: OVCAR-3 ovarian
OVCAR-4 ovarian = system: OVCAR-4 ovarian
OVCAR-5 ovarian = system: OVCAR-5 ovarian
OVCAR-8 ovarian = system: OVCAR-8 ovarian
PC-3 prostate = system: PC-3 prostate
RPMI-8226 leukemia = system: RPMI-8226 leukemia
RXF 393 renal = system: RXF 393 renal
SF-268 CNS = system: SF-268 CNS
SF-295 CNS = system: SF-295 CNS
SF-539 CNS = system: SF-539 CNS
SK-MEL-2 melanoma = system: SK-MEL-2 melanoma
SK-MEL-28 melanoma = system: SK-MEL-28 melanoma
SK-MEL-5 melanoma = system: SK-MEL-5 melanoma
SK-OV-3 ovarian = system: SK-OV-3 ovarian
SN12C renal = system: SN12C renal
SNB-19 CNS = system: SNB-19 CNS
SNB-75 CNS = system: SNB-75 CNS
SR leukemia = system: SR leukemia
SW-620 colon = system: SW-620 colon
T-47D breast = system: T-47D breast
TK-10 renal = system: TK-10 renal
U251 CNS = system: U251 CNS
UACC-257 melanoma = system: UACC-257 melanoma
UACC-62 melanoma = system: UACC-62 melanoma
UO-31 renal = system: UO-31 renal

With `COC1=CC(=O)C(OC)=C(OC)C1=O` the GI50 (786-0 renal) was 18.3 µM, the TGI (786-0 renal) was 32.5 µM and the GI50 (A498 renal) was > 100 µM. The TGI (A498 renal) was > 100 µM, the GI50 (A549 NSCLC) was 49.5 µM and the TGI (A549 NSCLC) was > 100 µM. It also gave a GI50 (ACHN renal) of 12.8 µM, a TGI (ACHN renal) of 25.3 µM and a GI50 (BT-549 breast) of 16.7 µM. The TGI (BT-549 breast) was 30.4 µM, the GI50 (CAKI-1 renal) was 16.1 µM and the TGI (CAKI-1 renal) was 30 µM. It also gave a GI50 (CCRF-CEM leukemia) of 2.8 µM, a TGI (CCRF-CEM leukemia) of 8.39 µM and a GI50 (COLO 205 colon) of 15.1 µM. It also gave a TGI (COLO 205 colon) of 29 µM, a GI50 (DU-145 prostate) of 16 µM and a TGI (DU-145 prostate) of 29.7 µM. The GI50 (EKVX NSCLC) was 15.9 µM, the TGI (EKVX NSCLC) was 29.8 µM and the GI50 (HCC-2998 colon) was > 100 µM. For the same compound, the TGI (HCC-2998 colon) was > 100 µM, the GI50 (HCT-116 colon) was 16 µM and the TGI (HCT-116 colon) was 29.6 µM. It also gave a GI50 (HCT-15 colon) of 16.2 µM, a TGI (HCT-15 colon) of 33.7 µM and a GI50 (HL-60(TB) leukemia) of 2.92 µM. For the same compound, the TGI (HL-60(TB) leukemia) was 8.73 µM, the GI50 (HOP-62 NSCLC) was 16.2 µM and the TGI (HOP-62 NSCLC) was 29.7 µM. The GI50 (HOP-92 NSCLC) was 9.38 µM, the TGI (HOP-92 NSCLC) was 22.4 µM and the GI50 (HS 578T breast) was 28 µM. The TGI (HS 578T breast) was > 100 µM, the GI50 (HT29 colon) was 22.5 µM and the TGI (HT29 colon) was 53.8 µM. The GI50 (IGROV1 ovarian) was 19.7 µM, the TGI (IGROV1 ovarian) was 37.6 µM and the GI50 (K-562 leukemia) was 2.29 µM. For the same compound, the TGI (K-562 leukemia) was 6.05 µM, the GI50 (LOX IMVI melanoma) was 12 µM and the TGI (LOX IMVI melanoma) was 25.1 µM. It also gave a GI50 (M14 melanoma) of 15.6 µM, a TGI (M14 melanoma) of 29.7 µM and a GI50 (MALME-3M melanoma) of 18 µM. For the same compound, the TGI (MALME-3M melanoma) was 35.6 µM, the GI50 (MCF7 breast) was 21.5 µM and the TGI (MCF7 breast) was 53.1 µM. It also gave a GI50 (MDA-MB-231 breast) of 2.33 µM, a TGI (MDA-MB-231 breast) of 5.13 µM and a GI50 (MDA-MB-435) of 3.16 µM. The TGI (MDA-MB-435) was 11.1 µM, the GI50 (MOLT-4 leukemia) was 2.07 µM and the TGI (MOLT-4 leukemia) was 5.5 µM. The GI50 (NCI-H226 lung) was 18.7 µM, the TGI (NCI-H226 lung) was 39.2 µM and the GI50 (NCI-H23 lung) was 14.9 µM. The TGI (NCI-H23 lung) was 30 µM, the GI50 (NCI-H460 lung) was 77 µM and the TGI (NCI-H460 lung) was > 100 µM. For the same compound, the GI50 (NCI-H522 lung) was 3.21 µM, the TGI (NCI-H522 lung) was 17.4 µM and the GI50 (NCI/ADR-RES ovarian) was 17.5 µM. It also gave a TGI (NCI/ADR-RES ovarian) of 36.6 µM, a GI50 (OVCAR-3 ovarian) of 17.2 µM and a TGI (OVCAR-3 ovarian) of 31.1 µM. The GI50 (OVCAR-4 ovarian) was 3.05 µM, the TGI (OVCAR-4 ovarian) was 9.69 µM and the GI50 (OVCAR-5 ovarian) was 17.3 µM. The TGI (OVCAR-5 ovarian) was 33 µM, the GI50 (OVCAR-8 ovarian) was 15.5 µM and the TGI (OVCAR-8 ovarian) was 30.7 µM. For the same compound, the GI50 (PC-3 prostate) was 14.9 µM, the TGI (PC-3 prostate) was 32.8 µM and the GI50 (RPMI-8226 leukemia) was 14.7 µM. The TGI (RPMI-8226 leukemia) was 42.9 µM, the GI50 (RXF 393 renal) was 17.1 µM and the TGI (RXF 393 renal) was 30.9 µM. The GI50 (SF-268 CNS) was 17.1 µM, the TGI (SF-268 CNS) was 30.9 µM and the GI50 (SF-295 CNS) was 17.8 µM. It also gave a TGI (SF-295 CNS) of 33.5 µM, a GI50 (SF-539 CNS) of 16.5 µM and a TGI (SF-539 CNS) of 30.9 µM. The GI50 (SK-MEL-2 melanoma) was 9.98 µM, the TGI (SK-MEL-2 melanoma) was 33.1 µM and the GI50 (SK-MEL-28 melanoma) was 28.3 µM. For the same compound, the TGI (SK-MEL-28 melanoma) was 94.1 µM, the GI50 (SK-MEL-5 melanoma) was 16.2 µM and the TGI (SK-MEL-5 melanoma) was 30.2 µM. For the same compound, the GI50 (SK-OV-3 ovarian) was 72.9 µM, the TGI (SK-OV-3 ovarian) was > 100 µM and the GI50 (SN12C renal) was 15.1 µM. The TGI (SN12C renal) was 28.8 µM, the GI50 (SNB-19 CNS) was 21.5 µM and the TGI (SNB-19 CNS) was 52.8 µM. The GI50 (SNB-75 CNS) was 12.1 µM, the TGI (SNB-75 CNS) was 25.6 µM and the GI50 (SR leukemia) was 2.71 µM. The TGI (SR leukemia) was 9.04 µM, the GI50 (SW-620 colon) was 18 µM and the TGI (SW-620 colon) was 35.1 µM. For the same compound, the GI50 (T-47D breast) was 10.3 µM, the TGI (T-47D breast) was 32.2 µM and the GI50 (TK-10 renal) was 15.3 µM. For the same compound, the TGI (TK-10 renal) was 30 µM, the GI50 (U251 CNS) was 15.1 µM and the TGI (U251 CNS) was 29.3 µM. It also gave a GI50 (UACC-257 melanoma) of 14.2 µM, a TGI (UACC-257 melanoma) of 27.7 µM and a GI50 (UACC-62 melanoma) of 14.4 µM. It also gave a TGI (UACC-62 melanoma) of 27.9 µM, a GI50 (UO-31 renal) of 13 µM and a TGI (UO-31 renal) of 26.3 µM.
